This is an account of results in patent US10653672B2, “Myogenesis promotor, muscle atrophy inhibitor, medical composition and TAZ activator” (National University Corporation Tokyo Medical and Dental …, priority 2014, dated 2020).

Series [1] has as its system C2C12 cells. Put plainly: Antagonistic action on myostatin in C2C12 cells. Type of series: cell-based, mouse. Conditions: differentiation condition 72 hours. The source says:
Myostatin is a protein and a member of a transforming growth factor […] superfamily, and inhibits muscle growth and differentiation. Myostatin binds activin type IIB receptor and triggers SMAD2/3-dependent signaling. Since TAZ interacts with SMAD2/3, effects of IBS008738 on the signaling of myostatin was examined (FIGS. 8A to 8C). The line in the figures is 100 μm. The line and the error bar indicate the average value and the standard error, *p<0.05, […], ***p<0.001, ns refers to not significant.
(1) C2C12 cells in which TAZ was knocked down (si TAZ) and C2C12 cells in which TAZ was not knocked down (si Cont) were grown to confluence, respectively, A stock solution of 100 μg/mL myostatin in 4 mM […] with 0.1% (w/v) BSA and a stock solution of 10 mM IBS008738 in DMSO were prepared. The cells were cultured at differentiation condition for 72 hours in a 1 mL medium with 1 μL DMSO, a 1 mL medium with 1 μL myostatin stock solution, and a 1 mL medium with 1 μL IBS008738 stock solution. As a result, muscle formation of the C2C12 cells was inhibited in the case with only myostatin, but muscle formation of the C2C12 cells was recovered in the case with myostatin and IBS008738.
(2) The fusion index of C2C12 cells in which TAZ was knocked down (si TAZ) and C2C12 cells in which TAZ was not knocked down (si Cont), after being cultured under differentiation condition for 72 hours, was analyzed.
Expression of MHC of C2C12 cells in which TAZ was knocked down (si TAZ) and C2C12 cells in which TAZ was not knocked down (si Cont), after being cultured under differentiation condition for 72 hours, was analyzed by immunoblotting. As a result, expression of MHC decreased in the case with only myostatin, whereas it recovered in the case with myostatin and IBS008738 (see FIG. 8C).

In a further series the test system is Balb/c ByJ mice. Put plainly: Suppression of dexamethasone-induced muscle atrophy. Format: in vivo, mouse. Conditions: 20 μL of 25 mg/mL stock intraperitoneally each day for a week; day 14. As to the method: (1) A 25 mg/mL dexamethasone stock solution in DMSO was prepared. Three Balb/c ByJ mice (6 week, female) were intraperitoneally injected with 20 μL of the dexamethasone stock solution, each day for a week. As a control group, three other individuals were injected with 20 μL of DMSO. On day 9, 11 and 13, each group of the mice was injected with a solution prepared by dissolving 0.3 μL of 10 mM IBS008738 stock solution in 100 μL PBS, on one hindlimb muscle, and with 100 μL PBS on the other hindlimb muscle. The mice were sacrificed at day 14, and the muscle tissues were fixed and stained with hematoxylin and eosin (see FIG. 8D). It was observed that the muscle fibers of the mice administered with dexamethasone were shrinked.
(2) The cross section of the muscle fibers of the individual intraperitoneally injected with dexamethasone was stained with an anti-laminin antibody and observed. […] The cross-section area of muscle fibers (500 per individual) of the three mice was measured. As a result, the area of the individual injected with IBS008738 was greater than the area of the individual injected with DMSO (see FIG. 9F). The cross-section area of muscle fibers was analyzed with Image J software.

Series [2] concerns C2C12 cells. The series can be described thus: Evaluation of myogenesis of C2C12 cells by fusion index. Type of series: cell-based, mouse. Conditions: differentiation condition 72 hours, DMSO as 1, average of three. As to the method:
(1) C2C12 cells were grown to confluence under growth condition, and then in differentiation condition for 72 hours, in a culture medium added with DMSO, IBS008738 (exemplary compound 1) or exemplary compounds 2 to 44, at a concentration of 1 μM, 3 μM or 10 μM, respectively. Thereafter, the degree of myogenesis was evaluated by a fusion index (a value obtained by dividing the number of nuclei detected in multinucleated myosin heavy chain (MHC)-positive cells by the total number of the nuclei). Specifically, exemplary compounds were divided into five groups, and DMSO and IBS008738 were evaluated in each group as controls. The evaluation was conducted three times, and the average value and the standard deviation of the fusion index was relativized with the measured value of DMSO as 1.
C2C12 cells were passaged in a growth medium (DMEM containing 10% FBS) and differentiated in a differentiation medium (DMEM containing 2% horse serum (Invitrogen)).

“And” between values parts separate entries of the source, which are not always exact repeats. Identical values can stand only once.

Take myostatin [MSTN]: in the series on C2C12 cells [1] (TAZ not knocked down, 1 μL myostatin stock (100 μg/mL) and/or 1 μL 10 mM IBS008738 stock in 1 mL medium), the “muscle formation of the C2C12 cells” value was “inhibited”. Further, the “expression of MHC” value in the series with C2C12 cells [1] (immunoblotting) was “decreased”. Also, the Fusion index was 0.06 and 0.05 in the series on C2C12 cells [1] (siCont C2C12 cells); 0.02 and 0.03 and 0.04 in the series with C2C12 cells [1] (siTAZ C2C12 cells).

With `C[C@@H]1C[C@H]2[C@@H]3CCC4=CC(=O)C=C[C@]4(C)[C@@]3(F)[C@@H](O)C[C@]2(C)[C@@]1(O)C(=O)CO` [dexamethasone, reference compound], the “muscle fibers of the mice administered with dexamethasone” value with Balb/c ByJ mice was “shrinked”.

Take `CCOC(=O)c1c(/N=C/N(C)C)ncn1-c1ccc(C)cc1` [exemplary compound 8]: the “relative fusion index (FI)” value was found to be 0.93 in the series on C2C12 cells [2] (Group 1, 1 μM); 1.53 with C2C12 cells [2] (Group 1, 3 μM); 1.05 in the series with C2C12 cells [2] (Group 1, 10 μM).

In the case of `CCOC(=O)c1c(N)ncn1-c1ccccc1C` [exemplary compound 40], the “relative fusion index (FI)” value in the series with C2C12 cells [2] (Group 5, 1 μM) was determined as 1.12; in the series on C2C12 cells [2] (Group 5, 3 μM), 1.15; in the series with C2C12 cells [2] (Group 5, 10 μM) it was 1.10.

Regarding `CN(C)/C=N/c1ncn(-c2ccc(Br)cc2)c1C(=O)c1ccccc1` [exemplary compound 19], the “relative fusion index (FI)” value in the series on C2C12 cells [2] (Group 3, 1 μM) came out at 1.25; in the series on C2C12 cells [2] (Group 3, 3 μM) it was 1.57; in the series on C2C12 cells [2] (Group 3, 10 μM), 1.63.

In the case of `N#CCc1ccc(-n2cnc(N)c2C(=O)c2ccccc2)cc1` [exemplary compound 29], the “relative fusion index (FI)” value came out at 1.25 with C2C12 cells [2] (Group 4, 1 μM); 1.49 in the series on C2C12 cells [2] (Group 4, 3 μM); 1.61 with C2C12 cells [2] (Group 4, 10 μM).

Consider `CC(=O)c1c(N)ncn1-c1ccccc1C` [exemplary compound 41], for which the “relative fusion index (FI)” value in the series with C2C12 cells [2] (Group 5, 1 μM) is recorded as 1.14; in the series with C2C12 cells [2] (Group 5, 3 μM), 1.06; with C2C12 cells [2] (Group 5, 10 μM), 1.11.

In the case of `Cc1ccc(-n2cnc(N)c2C(=O)c2ccc(Br)cc2)cc1` [exemplary compound 36], the “relative fusion index (FI)” value in the series on C2C12 cells [2] (Group 4, 1 μM) is given as 1.12; in the series on C2C12 cells [2] (Group 4, 3 μM), 1.57; with C2C12 cells [2] (Group 4, 10 μM) it was 1.59.
